Where a name gives a salt, the structure may show the parent alone.

The target in the experiment is T1, bovine cerebral TPK1 (Bos taurus, UniProt A0A3Q1MT31).
T1 construct: Against P-GS1 Phosphorylation by Bovine Cerebral TPK1; from tissue; host or cells: bovine cerebrum (brain)
Put plainly: Inhibitory activity against P-GS1 phosphorylation by bovine cerebral TPK1. It is filed as biochemical. As to conditions: 41.7 μM [γ-32P] ATP, 25° C., 2 hours, pH 6.5. On the procedure:
Test Example: Inhibitory Activity of the Medicament of the Present Invention Against P-GS1 Phosphorylation by Bovine Cerebral TPK1
A mixture containing 100 mM MES-sodium hydroxide (pH 6.5), 1 mM magnesium acetate, 0.5 mM EGTA, 5 mM β-mercaptoethanol, 0.02% Tween 20, 10% glycerol, 12 μg/ml P-GS1, 41.7 μM [γ-^32P] ATP (68 kBq/ml), bovine cerebral TPK1 and a compound shown in Table (a final mixture contained 1.7% DMSO deriving from a solution of a test compound prepared in the presence of 10% DMSO) was used as a reaction system. The phosphorylation was started by adding ATP, and the reaction was conducted at 25° C. for 2 hours, and then stopped by adding 21% perchloric acid on ice cooling. The reaction mixture was centrifuged at 12,000 rpm for 5 minutes and adsorbed on P81 paper (Whatmann), and then the paper was washed four times with 75 mM phosphoric acid, three times with water and once with acetone. The paper was dried, and the residual radioactivity was measured using a liquid scintillation counter.

T1 sequence (A0A3Q1MT31 1-419): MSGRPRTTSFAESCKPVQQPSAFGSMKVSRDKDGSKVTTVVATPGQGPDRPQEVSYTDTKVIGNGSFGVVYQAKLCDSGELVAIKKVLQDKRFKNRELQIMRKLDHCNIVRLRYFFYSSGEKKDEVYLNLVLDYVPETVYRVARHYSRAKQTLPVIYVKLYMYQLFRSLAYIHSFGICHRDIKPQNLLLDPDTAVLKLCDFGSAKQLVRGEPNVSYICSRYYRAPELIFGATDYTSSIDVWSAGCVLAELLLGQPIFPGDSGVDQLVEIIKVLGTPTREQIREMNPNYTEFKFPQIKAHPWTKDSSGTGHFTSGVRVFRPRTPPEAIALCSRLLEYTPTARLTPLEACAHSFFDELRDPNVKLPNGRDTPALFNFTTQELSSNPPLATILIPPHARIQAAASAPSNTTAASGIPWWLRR

What is called IC50 is the concentration needed to halve the response being measured. In turn, “2-(bromophenylamino)-6-(4-pyridyl)pyrimidin-4-one [Example 91]” came in with an IC50 of 1.6 µM.

“2-(butoxyphenylamino)-6-(4-pyridyl)pyrimidin-4-one [Example 90]” displayed an IC50 of 6.3 µM.

“2-(ethylphenylamino)-6-(4-pyridyl)pyrimidin-4-one [Example 89]” yielded an IC50 of 2.3 µM. This IC50 lies about 2.7-fold lower than the previous one.

`O=c1cc(-c2ccncc2)nc(-c2cccnc2)[nH]1` [Example 1, 2-(3-pyridyl)-6-(4-pyridyl)pyrimidin-4-one] displayed an IC50 of 2.3 µM.

`Cc1nc(-c2ccncc2)cc(=O)[nH]1` [Example 2, 2-methyl-6-(4-pyridyl)pyrimidin-4-one] returned an IC50 of 3 µM.

The compound `CC(C)c1nc(-c2ccncc2)cc(=O)[nH]1` [Example 5, 2-isopropyl-6-(4-pyridyl)pyrimidin-4-one] returned an IC50 of 2.1 µM.

The compound `CCCCc1nc(-c2ccncc2)cc(=O)[nH]1` [Example 6, 2-butyl-6-(4-pyridyl)pyrimidin-4-one] yielded an IC50 of 1.3 µM.

The compound `CC(C)Cc1nc(-c2ccncc2)cc(=O)[nH]1` [Example 7, 2-isobutyl-6-(4-pyridyl)pyrimidin-4-one] displayed an IC50 of 2.4 µM.

The compound `O=c1cc(-c2ccncc2)nc(-c2ccccc2)[nH]1` [Example 12, 2-phenyl-6-(4-pyridyl)pyrimidin-4-one] had an IC50 of 1.8 µM.

In the case of `Cc1ccccc1-c1nc(-c2ccncc2)cc(=O)[nH]1` [Example 14, 6-(4-pyridyl)-2-(2-tolyl)pyrimidin-4-one], the IC50 was 4 µM.

`Cc1cccc(-c2nc(-c3ccncc3)cc(=O)[nH]2)c1` [Example 15, 6-(4-pyridyl)-2-(3-tolyl)pyrimidin-4-one] showed an IC50 of 2.2 µM.

On to `Cc1ccc(-c2nc(-c3ccncc3)cc(=O)[nH]2)cc1` [Example 16, 6-(4-pyridyl)-2-(4-tolyl)pyrimidin-4-one], for which half-maximal inhibition (IC50) required 4.8 µM. Compared with the last compound, the IC50 is about 2.2-fold higher.

`O=c1cc(-c2ccncc2)nc(-c2cccc(Br)c2)[nH]1` [Example 19, 2-(3-bromophenyl)-6-(4-pyridyl)pyrimidin-4-one] showed an IC50 of 8.7 µM. Compared with the last compound, the IC50 is about 1.8-fold higher.

Turning to `N#Cc1cccc(-c2nc(-c3ccncc3)cc(=O)[nH]2)c1` [Example 22, 2-(3-cyanophenyl)-6-(4-pyridyl)pyrimidin-4-one], the IC50 worked out at 6.2 µM.

Turning to `O=c1cc(-c2ccncc2)nc(-c2ccc([N+](=O)[O-])cc2)[nH]1` [Example 24, 2-(4-nitrophenyl)-6-(4-pyridyl)pyrimidin-4-one], half-maximal inhibition (IC50) required 5.3 µM.

The compound `CN(C)Cc1cccc(-c2nc(-c3ccncc3)cc(=O)[nH]2)c1` [Example 27, 2-(3-(dimethylaminomethyl)phenyl)-6-(4-pyridyl)pyrimidin-4-one dihydrochloride] came in with an IC50 of 3.3 µM. Against the preceding compound, the IC50 is about 1.6-fold lower.

As to `O=c1cc(-c2ccncc2)nc(Cc2ccccc2)[nH]1` [Example 28, 2-benzyl-6-(4-pyridyl)pyrimidin-4-one], the IC50 stood at 1.3 µM. This IC50 is about 2.5-fold lower than that of the compound before.

`Cc1ccccc1Cc1nc(-c2ccncc2)cc(=O)[nH]1` [Example 29, 2-(2-methylbenzyl)-6-(4-pyridyl)pyrimidin-4-one] registered an IC50 of 1.4 µM. This IC50 and that of the compound before are within 1.5-fold of each other.

With `Cc1ccc(Cc2nc(-c3ccncc3)cc(=O)[nH]2)cc1` [Example 31, 2-(4-methylbenzyl)-6-(4-pyridyl)pyrimidin-4-one], the IC50 was 2.9 µM. Compared with the last compound, the IC50 is about 2.1-fold higher.

`O=c1cc(-c2ccncc2)nc(Cc2ccc(Cl)cc2)[nH]1` [Example 33, 2-(4-chlorobenzyl)-6-(4-pyridyl)pyrimidin-4-one] displayed an IC50 of 5.5 µM.

The compound `O=c1cc(-c2ccncc2)nc(CCc2ccccc2)[nH]1` [Example 35, 2-(2-phenylethyl)-6-(4-pyridyl)pyrimidin-4-one] came in with a concentration for half-maximal inhibition (IC50) of 8.9 µM.

As for `O=c1cc(-c2ccncc2)nc(CCCc2ccccc2)[nH]1` [Example 36, 2-(3-phenylpropyl)-6-(4-pyridyl)pyrimidin-4-one], inhibition was half-maximal at 0.5 µM (IC50).

Turning to `O=c1cc(-c2ccncc2)nc(-c2ccccn2)[nH]1` [Example 37, 2-(2-pyridyl)-6-(4-pyridyl)pyrimidin-4-one], the IC50 came out at 3.8 µM.

`O=c1cc(-c2ccncc2)nc(-c2ccncc2)[nH]1` [Example 38, 2,6-di(4-pyridyl)pyrimidin-4-one]: inhibition was half-maximal at 1.8 µM (IC50).

For `O=c1cc(-c2ccncc2)nc(Cc2cccs2)[nH]1` [Example 42, 6-(4-pyridyl)-2-(2-thienylmethyl)pyrimidin-4-one], it took 7.6 µM to reach half-maximal inhibition (IC50).

For `Nc1nc(-c2ccncc2)cc(=O)[nH]1` [Example 43, 2-amino-6-(4-pyridyl)pyrimidin-4-one], the IC50 stood at 5.7 µM. This IC50 and that of the compound before are within 1.5-fold of each other.

In turn, `CN(C)c1nc(-c2ccncc2)cc(=O)[nH]1` [Example 44, 2-dimethylamino-6-(4-pyridyl)pyrimidin-4-one] displayed a half-maximal inhibitory concentration (IC50) of 3.7 µM.

`O=c1cc(-c2ccncc2)nc(Cc2ccccc2Cl)[nH]1` [Example 68, 2-(2-chlorobenzyl)-6-(4-pyridyl)pyrimidin-4-one] gave an IC50 of 1.3 µM.

In turn, `O=c1cc(-c2ccncc2)nc(N2CCCCC2)[nH]1` [Example 69, 2-(1-piperidino)-6-(4-pyridyl)pyrimidin-4-one] came in with an IC50 of 2.5 µM.

Compound `CCN(CC)c1nc(-c2ccncc2)cc(=O)[nH]1` [Example 71, 2-(diethylamino)-6-(4-pyridyl)pyrimidin-4-one] returned an IC50 of 1.1 µM.

Compound `CN(Cc1ccccc1)c1nc(-c2ccncc2)cc(=O)[nH]1` [Example 79, 2-(N-benzyl-N-methylamino)-6-(4-pyridyl)pyrimidin-4-one] came in with an IC50 of 2.8 µM.

`O=c1cc(-c2ccncc2)nc(NCc2ccccc2)[nH]1` [Example 80, 2-benzylamino-6-(4-pyridyl)pyrimidin-4-one] displayed a half-maximal inhibitory concentration (IC50) of 1.1 µM.

Regarding `O=c1cc(-c2ccncc2)nc(N2CCOCC2)[nH]1` [Example 82, 2-(4-morpholinyl)-6-(4-pyridyl)pyrimidin-4-one], half-maximal inhibition (IC50) required 4.3 µM.

The compound `O=c1cc(-c2ccncc2)nc(C2CCCCC2)[nH]1` [Example 83, 2-cyclohexyl-6-(4-pyridyl)pyrimidin-4-one] yielded an IC50 of 2.8 µM.

`CC(C)CN(C)c1nc(-c2ccncc2)cc(=O)[nH]1` [Example 84, 2-(N-isobutyl-N-methylamino)-6-(4-pyridyl)pyrimidin-4-one] returned an IC50 of 1.1 µM. Compared with the last compound, the IC50 is about 2.5-fold lower.

As for `CCCN(CCC)c1nc(-c2ccncc2)cc(=O)[nH]1` [Example 85, 2-dipropylamino-6-(4-pyridyl)pyrimidin-4-one], the IC50 stood at 0.96 µM.

`O=c1cc(-c2ccncc2)nc(NCCCO)[nH]1` [Example 86, 2-(3-hydroxypropylamino)-6-(4-pyridyl)pyrimidin-4-one] gave an IC50 of 10 µM.

`O=c1cc(-c2ccncc2)nc(N2CCCC2)[nH]1` [Example 87, 2-(1-pyrrolidinyl)-6-(4-pyridyl)pyrimidin-4-one] had an IC50 of 2.6 µM.

In turn, `O=c1cc(-c2ccncc2)nc(NCC2CCCCC2)[nH]1` [Example 88, 2-cyclohexylmethylamino-6-(4-pyridyl)pyrimidin-4-one] registered an IC50 of 1.4 µM.

Take `O=c1cc(-c2ccncc2)nc(Nc2ccccc2)[nH]1` [Example 92, 2-phenylamino-6-(4-pyridyl)pyrimidin-4-one]: half-maximal inhibition (IC50) required 1.6 µM.

`COc1cccc(Nc2nc(-c3ccncc3)cc(=O)[nH]2)c1` [Example 93, 2-(3-methoxyphenylamino)-6-(4-pyridyl)pyrimidin-4-one]: it took 1.8 µM to reach half-maximal inhibition (IC50).

Consider `O=c1cc(-c2ccncc2)nc(Cc2cccc(-c3ccccc3)c2)[nH]1` [Example 96, 2-(3-phenylbenzyl)-6-(4-pyridyl)pyrimidin-4-one], for which half-maximal inhibition (IC50) required 0.77 µM.

`O=c1cc(-c2ccncc2)nc(-c2ccc(O)cc2)[nH]1` [Example 97, 2-(4-hydroxyphenyl)-6-(4-pyridyl)pyrimidin-4-one]: 1.7 µM corresponded to half-maximal inhibition (IC50).
